Where two headings read alike, the source gives them in different places.
Key:
[1] = design: method as in PMID 29206032, PMID 32548431; details: ref [24],[25],[26]; cited from earlier work
N. fowleri cysts = assay: Excystation assay, N. fowleri cysts; assay type: cell-based, Naegleria fowleri; details: for inhibition at 100 µM: Naegleria fowleri, read-out: Inhibition of excystation of N. fowleri
Experimental: (§1) Briefly, 5 × 10^5 amoebae cysts (N. fowleri and B. mandrillaris cells) were incubated with 100 μM drugs and/or solvent in 24-well plates containing RPMI-1640 on HeLa monolayers at 37 °C and 5% CO2 until around 75% of the cysts in RPMI-1640 alone have excysted. The RPMI-1640 alone was used as a negative control while DMSO and ethanol were used as a solvent control and 100 μM miltefosine was used as positive control. Live trophozoites (amoebae that excysted) were then quantified by counting live (unstained) cells, after addition of 0.1% Trypan blue to each well, using a haemocytometer. Percentage inhibition is defined as: [(Number of trophozoites in untreated well − Number of trophozoites in treated well)/Number of trophozoites in untreated well)] × 100. The data are representative of the mean ± standard error of several independent experiments performed in duplicate.
(§2) Figure 3 (A) Inhibition of excystation of N. fowleri cysts. N. fowleri cysts were incubated with 100 μM drugs and/or solvent in 24-well plates containing RPMI-1640 on HeLa monolayers for 24 h and number of viable trophozoites were then enumerated. Percentage inhibition of excystation was calculated by: [((RPMI trophozoite cell count − trophozoite cell count for sample)/RPMI trophozoite cell count) × 100)]. The activities of solvents alone were negated from the activities of the compounds. The data is presented as the mean ± standard error (*: p ˂ 0.05, **: p < 0.01, ***: p < 0.001 using student t-test; two tailed distribution). (B) Inhibition of excystation of B. mandrillaris cysts. B. mandrillaris cysts were incubated with 100 μM drugs and/or solvent in 24-well plates containing RPMI-1640 on HeLa monolayers for 24 h and number of viable trophozoites were then enumerated. Percentage inhibition of excystation was calculated by: [((RPMI trophozoite cell count − trophozoite cell count for sample)/RPMI trophozoite cell count) × 100)]. The activities of solvents alone were negated from the activities of the compounds. The data is presented as the mean ± standard error (*: p ˂ 0.05, **: p < 0.01, ***: p < 0.001 using student t-test; two tailed distribution).

[2] = system: B. mandrillaris trophozoites; assay: Amoebicidal assay against B. mandrillaris trophozoites (Trypan blue); assay type: cell-based, Balamuthia mandrillaris; details: for EC50 / Concentration showing significant amoebicidal activity against B. mandrillaris: 24 h; for EC50: read-out: Half maximal effective concentration (EC50), B. mandrillaris; for Amoebicidal activity against B. mandrillaris: summary in discussion, concentration not given; for Concentration showing significant amoebicidal activity against B. mandrillaris: compared to solvent control
Experimental: (§3) Amoebicidal assays were performed as previously described. Briefly, 5 × 10^5 amoebae (N. fowleri and B. mandrillaris cells) were incubated with drugs and/or solvents in 24-well plates in RPMI-1640. Amoebae were incubated with RPMI-1640 for negative controls while DMSO and ethanol were used as solvent control. For the positive control, the anti-amoebic drug, 100 μM miltefosine was used. Plates were incubated at 37 °C and 5% CO2 for 24 h. Next, 0.1% Trypan blue was added to each well. […] The number of live cells (i.e., unstained) was counted using a haemocytometer to determine amoebicidal effects of various compounds. The data are representative of the mean ± standard error of several experiments performed in duplicate.
(§4) Figure 2 The amoebicidal activities of compounds against B. mandrillaris trophozoites. B. mandrillaris trophozoites were incubated with various concentrations of compounds for 24 h and trophozoites viability was determined using Trypan blue. Percentage amoebicidal activity was calculated by: [((RPMI cell count − cell count for sample)/RPMI cell count) × 100)]. The activities of solvents alone were negated from the activities of the compounds. The data is presented as the mean ± standard error (*: p < 0.05, **: p < 0.01, ***: p < 0.001 using student t-test; two tailed distribution).

HaCaT cells = assay type: cell-based, human
Experimental: Cytotoxic effects of the drugs were determined as previously described^21. Briefly, the cytotoxic activity of the drugs was investigated against HaCaT cells. […] The LDH assay protocol is based on an enzymatic reaction, i.e., LDH released from the cell oxidizes lactate to generate NADH, which then reacts with water-soluble tetrazolium salt (WST) to generate a yellow color. The intensity of the generated color correlates directly with the number of lyzed cells. Following this, 1% Triton X-100 was added to the positive control well and incubated the plate for 60 min at 37 °C. For negative control, human cells were grown in RPMI alone well. Then, an equal amount of cells supernatant (comprising LDH enzyme) from each well was combined with equal amount of LDH kit reagents and cytotoxicity was determined in proportion to LDH released from human cells using a spectrophotometer at 490 nm. The percentage LDH released was determined as follows: [(Absorbance of sample − Absorbance of control)/(Absorbance for total LDH release − Absorbance of control)] × 100 = percentage cytotoxicity.
Figure 4 Cytotoxic effects of compounds against human cells are depicted. Various concentrations of compounds were incubated with human cells for 24 h at 37 °C and 5% CO2. RPMI alone was used as negative control and triton X-100 was used as positive control. Data are presented as the mean ± standard error of 2 experiments conducted in duplicates.

N. fowleri trophozoites = assay: Amoebicidal assay against N. fowleri trophozoites (Trypan blue); assay type: cell-based, Naegleria fowleri; details: for minimal effective concentration / EC50: Naegleria fowleri; for minimal effective concentration: read-out: Lowest concentration showing significant amoebicidal activity against N. fowleri; for EC50: read-out: Half maximal effective concentration (EC50), N. fowleri; for Amoebicidal activity against N. fowleri: summary in discussion, concentration not given
Experimental: as §3
as §4, with “Figure 1” for “Figure 2”, “against N. fowleri” for “against B. mandrillaris”, “trophozoites. N. fowleri” for “trophozoites. B. mandrillaris”

B. mandrillaris cysts = assay: Excystation assay, B. mandrillaris cysts; assay type: cell-based; details: Balamuthia mandrillaris, read-out: Inhibition of excystation of B. mandrillaris
Experimental: as §1, §2

[3] = 100 μM, after negating effects of solvent alone
[4] = Balamuthia mandrillaris, trophozoites, Trypan blue
[5] = LDH release, 24 h, concentration not given
[6] = compared to solvent control, p < 0.05, 24 h
[7] = trophozoites, 24 h, Trypan blue

Row | Molecule | BBB Permeability [1] | inhibition at 100 µM (N. fowleri cysts; [3]) | EC50 [2, 4] | Amoebicidal activity against B. mandrillaris [2] | Cytotoxicity against HaCaT cells (HaCaT cells; [5]) | minimal effective concentration (N. fowleri trophozoites; [6]) | EC50 (N. fowleri trophozoites; [7]) | Amoebicidal activity against N. fowleri (N. fowleri trophozoites) | inhibition at 100 µM (B. mandrillaris cysts; [3]) | EC50 (N. fowleri trophozoites; 24 h) | EC50 ([2]; Balamuthia mandrillaris) | Concentration showing significant amoebicidal activity against B. mandrillaris [2] | other results
1 | CC(C)C1CCC(C(=O)N[C@H](Cc2ccccc2)C(=O)O)CC1 (stereo partly drawn) [Nateglinide, (2R)-3-phenyl-2-[(4-propan-2-ylcyclohexanecarbonyl)amino]propanoic acid] | Positive | 42% | 136 µM | 39% | 2% | ≥ 6.25 µM | 44.4 µM | 64% | 57% |  |  |  | 
2 | CN(C)C(=N)NC(=N)N [Metformin, 1-carbamimidamido-N,N-dimethylmethanimidamide] |  |  |  |  |  | 12.5 µM |  |  |  | 134 µM |  |  | Inhibition of excystation of N. fowleri (N. fowleri cysts; [3]): did not inhibit excystation
3 | C[C@H]1O[C@H](O[C@H]2[C@H](O)[C@@H](O)[C@@H](O[C@H]3[C@H](O)[C@@H](O)C(O)O[C@@H]3CO)O[C@@H]2CO)[C@H](O)[C@@H](O)[C@@H]1N[C@H]1C=C(CO)[C@@H](O)[C@H](O)[C@H]1O (stereo partly drawn) [Acarbose, (3R,4R,5S,6R)-5-[(2R,3R,4R,5S,6R)-5-[(2R,3R,4S,5S,6R)-3,4-dihydroxy-6-methyl-5-[[(1S,4R,5S,6S)-4,5,6-trihydroxy-3-(hydroxymethyl)cyclohex-2-en-1-yl]amino]oxan-2-yl]oxy-3,4-dihydroxy-6-(hydroxymethyl)oxan-2-yl]oxy-6-(hydroxymethyl)oxane-2,3,4-triol] | Negative | 17% |  | 60% |  | ≥ 25 µM |  | 74% | < 10% | 3.6 µM | 80.8 µM |  | 
4 | CN1C(=O)[C@](O)(Cc2cccc(O)c2)N(C)C(=O)[C@@H]1Cc1c[nH]c2cccc([N+](=O)[O-])c12 [Thaxtomin A, (3R,6S)-3-hydroxy-3-[(3-hydroxyphenyl)methyl]-1,4-dimethyl-6-[(4-nitro-1H-indol-3-yl)methyl]piperazine-2,5-dione] |  |  |  |  | 4% |  |  |  |  | 94.7 µM | 39 µM |  | inhibition at 100 µM (N. fowleri cysts): 22%; Lowest concentration showing significant amoebicidal activity against N. fowleri (N. fowleri trophozoites; [6]): did not show anti-N. fowleri effects at any concentration tested; inhibition at 100 µM (B. mandrillaris cysts): < 10%
5 | Cc1ccc2c(c1)C(Nc1nc(N)nc(C(C)F)n1)C(C)C2 (stereo not shown) [Indaziflam, N-(2,3-dihydro-2,6-dimethyl-1H-inden-1-yl)-6-(1-fluoroethyl)-1,3,5-triazine-2,4-diamine] |  |  |  | 52% | 4% |  |  | 62% |  | 53.7 µM | 99.8 µM | 50 µM | inhibition at 100 µM (N. fowleri cysts): 68%; minimal effective concentration (N. fowleri trophozoites; 24 h): 12.5 µM; inhibition at 100 µM (B. mandrillaris cysts): 52%
6 | N#C[C@@H]1CCCN1C(=O)CNC12CC3CC(CC(O)(C3)C1)C2 [Vildagliptin, (2S)-1-[2-[(3-hydroxy-1-adamantyl)amino]acetyl]pyrrolidine-2-carbonitrile] | Positive |  |  |  | did not exhibit any cytotoxicity | ≥ 3.13 µM | 100 µM |  | 14% |  |  |  | Inhibition of excystation of N. fowleri (N. fowleri cysts; [3]): did not inhibit excystation
7 | OC1C(O)C(O)C(O)C(O)C1O (stereo not shown) [Inositol, cyclohexane-1,2,3,4,5,6-hexol] | Present in brain | 12% | 124 µM |  | 4% | ≥ 6.25 µM | 48.9 µM |  |  |  |  | 6.25 µM | 
8 | O=C(O)/C=C/c1ccccc1 [Trans-cinnamic acid, (E)-3-phenylprop-2-enoic acid] |  | 59% |  |  | 8% | ≥ 3.13 µM | 9.4 µM |  | 32% |  |  |  | 
9 | O=C(O)c1c(Cl)ccc2cc(Cl)cnc12 [Quinclorac, 3,7-Dichloro-8-quinolinecarboxylic acid] |  | 30% | 297 µM |  | 6% | ≥ 25 µM | 102 µM |  | 53% |  |  | 50 µM | 
10 | Cellulase |  |  |  |  |  |  |  |  |  |  |  | 100 µM | Inhibition of excystation of N. fowleri (N. fowleri cysts; [3]): 39%; EC50 ([2]; trophozoites, Trypan blue): 106 µM; Cytotoxicity against HaCaT cells (HaCaT cells): did not exhibit any cytotoxicity; Lowest concentration showing significant amoebicidal activity against N. fowleri (N. fowleri trophozoites; [6]): did not show anti-N. fowleri effects at any concentration tested
11 | CCNc1nc(Cl)nc(NC(C)(C)C)n1 [Terbuthylazine, 2-N-tert-butyl-6-chloro-4-N-ethyl-1,3,5-triazine-2,4-diamine] |  | 29% | 62.5 µM | 61% | 2% | ≥ 3.13 µM | 7.5 µM | 63% | < 10% |  |  |  | 
12 | N#Cc1c(Cl)cccc1Cl [Dichlobenil (2,6-DNBT), 2,6-dichlorobenzonitrile] |  |  |  | 60% |  |  |  | 69% |  | 24.2 µM | 39.6 µM | 25 µM | inhibition at 100 µM (N. fowleri cysts): 45%; Cytotoxicity against HaCaT cells (HaCaT cells; human, 24 h): 3%; minimal effective concentration (N. fowleri trophozoites; 24 h): ≥ 6.25 µM; inhibition at 100 µM (B. mandrillaris cysts): 45%
